Residues, ends and D or L forms follow the SMILES beside them. *: point of attachment. AFC = O=c1cc(C(F)(F)F)c2ccc(N*)cc2o1; Cbz = O=C(OCc1ccccc1)*; CH2F = FC*

As a reminder, the inhibition is the share of the control response that was lost under treatment. Lower therefore signals little suppression. For orientation: % Inhibition means the relative decrease from the control value, in per cent. Lower therefore signals little suppression.

Common to all, as to assay type: biochemical
Experiment [1] relates to purified Taenia solium cysteine protease. As to the kind of experiment: Substrate cleavage screen of AFC-linked synthetic substrates (Step II), purified protease. As to conditions: 1 ug purified protease, 1 ug substrate, Citrate pH 4.9 with 0.01 M cysteine, 18 h, 37 °C. Here is the method: In this step, the most efficacious substrate for detection of the cysteine protease (high Kcat substrate) was determined in vitro along with those substrates which were not well cleaved (low kcat substrates). From this point forth, the following conditions refer to all assays: "assay buffer" refers to 0.4 M Citrate, pH 4.9 (the pH optima of the protease). Incubation time was 18 hours at 37°C. These conditions were determined by our preliminary data to be best for kinetic evaluation of the protease. […] The experiments were conducted in […] Borosilicate mini-culture tubes (Fisher Scientific), and a fluorometer (Turner) was employed for detection of AFC cleavage.
Approximately 1 ug (or a proteolytically detectable amount) of the purified target cysteine protease was incubated individually, with 1 ug of each of the available substrates in 500 uL of assay buffer. During this setup, the substrate was pre-incubated in the assay buffer for a short period of time (20 minutes) in order to reach an equilibrated status before the addition of the protease. Cleavage assessments were based upon the property of the protease to cleave synthetic peptide substrates linked at the C-terminus to 7-Amino-4-Trifluoromethyl Coumarin (AFC) as previously described. AFC linked tripeptides, dipeptides, and monopeptides, (with a variety of permutations at P3-P1) were available from Enzyme Systems Products (Livermore, CA), and were used as the source of the subset. Following incubation of enzyme preparations overnight (18 h, 37 °C) with peptide in assay buffer (Citrate, pH 4.9, supplemented with 0.01 M cysteine), free AFC concentrations were measured fluorometrically (excitation 405 nm, emission 505 nm). The proteolytic cleavage released the AFC group, which was measurable as a free molecule by a standard fluorometer and converted into molar quantities, based upon a previously established standard curve. The simplicity of AFC detection by the fluorometer was a key factor which quickened and simplified the procedures.
In the assay, 1 ug of the purified Taenia cysteine protease was added to a saturating amount of Z-Phe-Arg-AFC (4X10^-5 M) in assay buffer. The experiment was conducted in triplicate and repeated at least 5 times until we were certain that variability in AFC cleavage was not statistically significant.
Vmax was calculated for the cleavage of substrates by the purified target protease and Vmax was calculated for substrates cleaved by the crude mix protease using conventional kinetic modeling calculations already described in the art.

Another experiment deals with Taenia solium crude mix. As to the kind of experiment: Competitor assay of vehicles against high Vmax substrate cocktails (Step III), crude mix. To be noted: for V Value: V = P * M. As for the experimental part:
Step III for a crude mix proceeds it would for a purified protease, except that Vm is used instead of kcat.
The experiment began with a competitor test between the noncleaved low Vmax substrates and the highest Vmax substrate, Z-Phe-Arg-AFC. Concentrations were varied between the low Vmax substrate and Z-Phe-Arg-AFC, as described above under "refinement of assay" until a relative inhibition profile was obtained.
Percent inhibition was calculated as: %Inhibition =; ((AFC positive for"Y"-AFC negative for"Y")-(AFC test-AFC negative for"Y")X100)/(AFC positive for "Y"-AFC negative for "Y") [formula]
One of the most intriguing findings in this experiment was that a highly similar inhibition pattern for the competitor assay was noted when the crude mix was employed as the source of the target protease. Although there were some variations in the effects of inhibitor dilution, the most highly ranked vehicles remained inhibitory consistently in comparison to the profile with the target protease. The relative profile and composition of the top tiers of vehicles was identical. Z-LLL-AFC, Z-LLY-AFC, Mu-LY-AFC, Boc-VPR-AFC, Z-SY-AFC, Z-RR-AFC, Z-FLF-AFC, Z-LGR-AFC consistently presented as the top eight vehicles (Fig. 5b), respectively, based upon their V values (Table 2). […] It was notable that the three vehicles had very similar V values. […] As was mentioned, this vehicle along with Z-LLL-AFC and Z-LLY-AFC, were consistently the most inhibitory vehicles. The V values of the most inhibitory vehicle series are shown below in Table 2. Again, a clear break between the first and second tier vehicles could be noted with the V value. Table 2. Vehicles and V value rankings.

Another experiment addresses Cathepsin L (cysteine) (Homo sapiens, UniProt P07711). As to the kind of experiment: Differential cleavage (selectivity) test, Cathepsin L. To be noted: 0.4 M Citrate pH 5.5, 10 mM L-cysteine, substrate Z-FR-AFC. As for the experimental part: In order to perform the assay, the vehicle (for Step VI) or inhibitor (for Step IX) were incubated with the appropriate substrate in the correct assay buffer and allowed to equilibrate. Subsequently, the protease was added, and the assay was allowed to incubate for an appropriate time. The concentrations used in this experiment were as follows: Vehicle was set up at 4 X 10^-5 M in final assay buffer; Inhibitor was set up at 3 X 10^-10 M in the final assay buffer. Accordingly, the dosages employed should be the minimal amount of vehicle or inhibitor necessary to induce inhibition. […] Substrates were set up based upon the preferred substrate for cleavage of the particular enzyme.
Positive controls were set up similarly as described for test controls, except that solvent was added in substitution for the inhibitor or vehicle (in a volume equal to the volume of inhibitor or vehicle addition). All of the inhibitors and vehicles could be dissolved in dimethylsulfoxide (DMSO), and therefore, this was the solvent of choice. Negative controls were set up by adding the inhibitor or vehicle and the preferred substrates in a tube without the protease. All potential non-proteolytic liberation of AFC was therefore controlled for in this tube (a feature which also insured stability of the AFC substrates, since these substrates will freely liberate AFC when unstable).
All controls were set up in triplicate, and experiments were repeated a minimum of five times.
Percent inhibition was calculated as: % Inhibition = ((AFC positive for ʺSIʺ-AFC negative for ʺSIʺ)-(AFC test-AFC negative for ʺSIʺ))/(AFC positive for ʺSIʺ-AFC negative for ʺSIʺ) × 100 [formula] In this preliminary test, we employed the following human-derived enzymes (with indicated mechanistic class): Cathepsin B (cysteine), Cathepsin L (cysteine), Cathepsin H (cysteine), Cathepsin D (aspartic) Trypsin (serine), the purified Taenia solium cysteine protease, and the Taenia solium crude mix. Cathepsin B was prepared in an assay buffer of 10 mM L-cysteine in 0.4 M Citrate buffer, pH 6.1, using Z-ARR-AFC as the cleavage substrate. Cathepsin L was prepared in an assay buffer of 10 mM L-cysteine in 0.4 M Citrate buffer, pH 5.5, using Z-FR-AFC as the cleavage substrate. Cathepsin H was prepared in an assay buffer of 10 mM L-cysteine in 0.15 M PBS buffer, pH 6.8, using L-R-AFC as the cleavage substrate. Cathepsin D was prepared in an assay buffer of 0.15 M PBS, pH 7.1, using Z-RGFFP-AFC as the cleavage substrate. Trypsin was prepared in an assay buffer of 0.15 M PBS, pH 8.0, supplemented with 100 mM CaCl2 and with Z-R-AFC as the cleavage substrate. Enzyme was incubated so that it was at least 50 times less than the concentration of substrate in order to insure saturating conditions.

Setting [2] is: inhibitor 3 X 10^-10 M, 0.0003 µM.

Cathepsin L (cysteine), sequence (P07711 114-333): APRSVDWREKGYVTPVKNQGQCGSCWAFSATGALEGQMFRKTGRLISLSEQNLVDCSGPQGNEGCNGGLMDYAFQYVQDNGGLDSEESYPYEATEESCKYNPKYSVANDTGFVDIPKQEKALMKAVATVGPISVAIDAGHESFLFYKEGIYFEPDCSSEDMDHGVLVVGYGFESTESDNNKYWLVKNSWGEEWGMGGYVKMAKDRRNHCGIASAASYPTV

Take `CC(C)C[C@H](NC(=O)OCc1ccccc1)C(=O)N[C@@H](CC(C)C)C(=O)N[C@@H](Cc1ccc(O)cc1)C(=O)Nc1ccc2c(C(F)(F)F)cc(=O)oc2c1` [Z-LLY-AFC, Z-Leu-Leu-Tyr-AFC] (Cbz-Leu-Leu-Tyr-{AFC}): the “cleavage of AFC-linked substrate (Vmax)” value in experiment [1] was “noncleavable”. For the same molecule, in the experiment with Taenia solium crude mix, the Tier was 1 (The first tier was composed of those vehicles, which produced inhibition greater than 50% when in the presence of the 1.4% cocktail) and the “V Value” is listed as 0.55. Besides, at 40 µM the inhibition at Cathepsin L (cysteine) (vehicle 4 X 10^-5 M) was 0%.
Molecule `CC(C)C[C@H](NC(=O)OCc1ccccc1)C(=O)N[C@@H](CC(C)C)C(=O)N[C@@H](Cc1ccc(O)cc1)C(=O)CF` [Z-LLY-FMK, Z-Leu-Leu-Tyr-FMK] (Cbz-Leu-Leu-Tyr-CH2F) returned an inhibition at 0.0003 µM at Cathepsin L (cysteine) (inhibitor 3 X 10^-10 M) of 0%. In addition, the “% Inhibition” value at Cathepsin L (cysteine) (setting [2]) is recorded as “did not inhibit cathepsin L at all”.
For `CC(C)C[C@H](NC(=O)[C@H](CC(C)C)NC(=O)[C@H](CC(C)C)NC(=O)OCc1ccccc1)C(=O)CF` [Z-LLL-FMK, Z-Leu-Leu-Leu-fluoromethylketone] (Cbz-Leu-Leu-Leu-CH2F) the same measures were 50% and “almost half of the inhibition of the Taenia solium cysteine protease”.
Turning to Mu-Leu-Tyr-AFC [Mu-LY-AFC], the “cleavage of AFC-linked substrate (Vmax)” value in experiment [1] was “not cleaved”; in experiment [1] (listed as M-LY-AFC), “noncleavable”. Further, in the experiment with Taenia solium crude mix, the Tier is recorded as 1 (The first tier was composed of those vehicles, which produced inhibition greater than 50% when in the presence of the 1.4% cocktail). Besides, the “V Value” in the experiment with Taenia solium crude mix was determined as 0.45. Besides, the “% Inhibition” value at Cathepsin L (cysteine) (vehicle 4 X 10^-5 M) is reported as 25%; on Cathepsin L (cysteine) (vehicle 4 X 10^-5 M, 40 µM), “subtle inhibition”.
Consider `CC(C)C[C@H](NC(=O)OCc1ccccc1)C(=O)N[C@@H](CC(C)C)C(=O)N[C@@H](CC(C)C)C(=O)Nc1ccc2c(C(F)(F)F)cc(=O)oc2c1` [Z-LLL-AFC, Z-Leu-Leu-Leu-AFC] (Cbz-Leu-Leu-Leu-{AFC}), for which the “cleavage of AFC-linked substrate (Vmax)” value in experiment [1] is “noncleavable”. Moreover, in the experiment with Taenia solium crude mix, the Tier was 1 (The first tier was composed of those vehicles, which produced inhibition greater than 50% when in the presence of the 1.4% cocktail) and the “V Value” was determined as 0.611. On Cathepsin L (cysteine) (vehicle 4 X 10^-5 M), the inhibition at 40 µM was 0%.

These data come from EP1276895B1, “METHOD FOR THE IDENTIFICATION OF ACTIVE SITE PROTEASE INACTIVATORS” (THE UNIVERSITY OF GEORGIA RESEARCH FOUNDATION, INC., priority 2000, dated 2001).
